Laboratory results as given in patent US9125413B1, “Nematicide composition comprising CED-4 peptide” (California State University Fresno, priority 2014, dated 2015).

B1: CED-4: 549 amino acid C. elegans protein (SEQ. ID 1, GenBank CAA48781.1), about 62 KD, produced recombinantly in E. coli; fed as CED-4 producing bacteria (protein)
chain: MLCEIECRALSTAHTRLIHDFEPRDALTYLEGKNIFTEDHSELISKMSTRLERIANFLRIYRRQASELGPLIDFFNYNNQSHLADFLEDYIDFAINEPDLLRPVVIAPQFSRQMLDRKLLLGNVPKQMTCYIREYHVDRVIKKLDEMCDLDSFFLFLHGRAGSGKSVIASQALSKSDQLIGINYDSIVWLKDSGTAPKSTFDLFTDILLMLKSEDDLLNFPSVEHVTSVVLKRMICNALIDRPNTLFVFDDVVQEETIRWAQELRLRCLVTTRDVEISNAASQTCEFIEVTSLEIDECYDFLEAYGMPMPVGEKEEDVLNKTIELSSGNPATLMMFFKSCEPKTFEKMAQLNNKLESRGLVGVECITPYSYKSLAMALQRCVEVLSDEDRSALAFAVVMPPGVDIPVKLWSCVIPVDICSNEEEQLDDEVADRLKRLSKRGALLSGKRMPVLTFKIDHIIHMFLKHVVDAQTIANGISILEQRLLEIGNNNVSVPERHIPSHFQKFRRSSASEMYPKTTEETVIRPEDFPKFMQLHQKFYDSLKNFACC

What was measured:
Format in all cases: in vivo, Caenorhabditis elegans
[1] = system: C. elegans nematodes at the L1 stage; test: Nematicide efficacy of CED-4 peptides, 96-well incubation of C. elegans L1, viability by probe touch; conditions: for Percentage % Alive / Percentage % Dead (mortality rate) / # of nematodes Alive in all combined successful experiments / # of nematodes Dead in all combined successful experiments: three days, about 37° C.
Method: (§1) Assays were performed using 96-well plates. C. elegans nematodes at the L1 stage (refer to FIG. 1) were incubated in each of the 96 wells for three days at about 37° C. at about 0.8 mg/ml peptide concentration for each tested CED-4 peptide. Each of the selected CED-4 peptides were diluted in distilled water to 0.8 mg/ml peptide concentration. Nematodes—numbering between two nematodes and four nematodes—averaging about three nematodes were incubated in 100 μl of CED-4 peptide solution at about 0.8 mg/ml concentration in each well. After a three-day incubation period, the exposed C. elegans nematodes were checked for viability under a dissecting microscope.
The percentage of dead C. elegans from all of the successful experiments is also referred to as the “mortality rate.”
(§2) Each separate well containing nematodes was considered an independent trial experiment. A well in which all of the incubated nematodes were either clearly alive or clearly dead at the end of the incubation period was recorded as one successful experiment. A well in which some or all of the incubated nematodes could not clearly be determined as alive or dead at the end of the incubation period was recorded as one unsuccessful experiment. At a concentration of about 0.8 mg/ml, nine trial experiments were carried out for each of the twelve designed CED-4 peptides.
as §1, with “0.4” for “0.8”
as §2, with “0.4” for “0.8”, “eight” for “nine”

[2] = system: C. elegans wild-type (N2 strain) nematodes; test: Fecundity of C. elegans wild-type nematodes fed E. coli producing CED-4
Method: (§3) Constructed expression cassettes generate CED-4 protein in bacteria. […] In this experiment, the ced-4 gene was sub-cloned into the pBAD-DEST49 vector. The pBAD-DEST49-ced-4 construct, and the pBAD-DEST49 empty vector were tested for synthesis of the protein CED-4. The E. coli bacteria strain (TOP 10 chem.) was grown, and once the optical density OD600 reached 0.5, the bacteria was induced by adding L-Arabinose 20% and incubated for four hours at 37° C., 226 rpm in rotary shaker (C24, incubator shaker, Edison, N.J. USA). The production of CED-4 protein was analyzed by SDS 10% acrylamide gel and commassie blue staining.
The genes ced-4 and ced-3 are required for PCD in somatic cells of C. elegans, and a loss-of-function (lf) mutation in any one of them results in increased survival rates of cells that would otherwise be eliminated by PCD. In the experiment summarized by FIG. 5, bacteria carrying the ced-4 gene construct and bacteria carrying an empty vector were grown as described above in Section E, and used to feed C. elegans wild-type nematodes, mutant C. elegans ced-3 nematodes, and mutant C. elegans ced-4 nematodes at L1/L2 stages (refer to FIG. 1). For the experiment described in FIG. 5, C. elegans wild-type (wt), ced-3 (n717) and ced-4 (n1162) strains were synchronized, and the hatched nematodes were raised on a diet consisting of E. coli bacteria producing CED-4. Both nematodes and bacteria were sustained on NGM media and incubated at a temperature between 25° C. and 28° C.
(§4) The effects of CED-4 ingestion on all three different strains of C. elegans used were quantified by population size throughout several generations. After the hatched nematodes fed on either the control bacteria or the CED-4 producing bacteria for 72 hours, the nematodes in each experiment were scored for fecundity over the course of 120 hrs. Fecundity was measured by counting the number of hatched offspring. There were ten experiments replicated for each of the three analyzed C. elegans strains.

[3] = system: C. elegans ced-3 (n717) mutant nematodes; test: Fecundity of ced-3 mutant C. elegans fed E. coli producing CED-4
Method: as §3
(§5) The genes ced-4 and ced-3 are required for PCD in somatic cells of C. elegans, and a loss-of-function (lf) mutation in any one of them results in increased survival rates of cells that would otherwise be eliminated by PCD. […]
as §4

[4] = system: C. elegans ced-4 (n1162) mutant nematodes; test: Fecundity of ced-4 mutant C. elegans fed E. coli producing CED-4
Method: as §3, §5, §4

[5] = peptide concentration of 0.4 mg/ml
[6] = peptide concentration of 0.8 mg/ml
[7] = versus non-CED-4 producing bacteria

Row | Molecule | Percentage % Alive ([1]; 0.4 mg/ml) | Percentage % Dead (mortality rate) ([1]; 0.4 mg/ml) | Percentage % Alive ([1]; 0.8 mg/ml) | Percentage % Dead (mortality rate) ([1]; 0.8 mg/ml) | # of nematodes Alive in all combined successful experiments ([1]; 0.4 mg/ml) | # of nematodes Dead in all combined successful experiments ([1]; 0.4 mg/ml) | # of nematodes Alive in all combined successful experiments ([1]; 0.8 mg/ml) | # of nematodes Dead in all combined successful experiments ([1]; 0.8 mg/ml) | nematicide efficacy [1, 5] | nematicide efficacy [1, 6] | other results
1 | H-ALLSGKRMPVLTFKI-OH [Peptide 10] | 30% | 70% | 66.7% | 33.3% | – | – | – | – | – | – | –
2 | H-DLLRPVVIAPQFSRQ-OH [Peptide 2] | 92.3% | 7.7% | 0% | 100% | – | – | – | – | – | – | –
3 | H-DVEISNAASQTCEFIEVTSLE-OH [Peptide 7] | 100% | 0% | 100% | 0% | 19 | 0 | 18 | 0 | not associated with a high number of dead nematodes | not associated with a high number of dead nematodes | –
4 | H-FPKFMQLHQKFY-OH [Peptide 12] | 33.3% | – | 0% | – | – | – | 0 | – | – | – | –
5 | H-LVGVECITPYSYKSLAMALQR-OH [Peptide 9] | 100% | 0% | 100% | 0% | 18 | 0 | 8 | 0 | not associated with a high number of dead nematodes | not associated with a high number of dead nematodes | –
6 | H-MMFFKSCEPKTFEKMAQLNNKLESR-OH [Peptide 8] | 90.90% | 9.09% | 100% | 0% | 10 | – | 2 | 0 | – | not associated with a high number of dead nematodes | –
7 | H-QSHLADFLEDYIDFAINE-OH [Peptide 1] | 100% | 0% | – | – | 14 | 0 | – | – | not associated with a high number of dead nematodes | not associated with a high number of dead nematodes | –
8 | H-RQMLDRKLLLGNVPKQMTC-OH [Peptide 3] | 40% | 60% | 0% | 100% | – | – | – | 20 | – | – | –
9 | H-TCYIREYHVDRVI-OH [Peptide 4] | 64.28% | – | 50% | – | – | – | – | – | – | – | –
10 | H-TSVVLKRMICNALI-OH [Peptide 6] | 100% | 0% | 100% | 0% | 9 | 0 | 9 | 0 | not associated with a high number of dead nematodes | not associated with a high number of dead nematodes | –
11 | H-VDAQTIANGISILEQRL-OH [Peptide 11] | 100% | 0% | 70% | 30% | 22 | 0 | – | – | not associated with a high number of dead nematodes | – | –
12 | NH3—ILLMLKSEDDLLNF-COOH (H-ILLMLKSEDDLLNF-OH) [Peptide 5, ID No. 1] | – | – | – | – | – | – | – | – | not associated with a high number of dead nematodes | not associated with a high number of dead nematodes | –
13 | bovine serum albumin [BSA, reference compound] | 100% | – | 100% | – | 21 | 0 | 26 | 0 | – | – | –
14 | B1 | – | – | – | – | – | – | – | – | – | – | number of hatched offspring (mean) ([2]; 2 wild-type embryos per experiment, fed bacteria expressing CED-4 72 hours, fecundity scored over 120 hrs, ten experiments): about 115 hatched offspring; increase in rate of cell death ([2]; wild-type fed bacteria expressing CED-4 for 6 days): approximately 2 fold; offspring produced relative to those fed bacteria containing empty expression vectors ([2]; wild-type, CED-4 fed, t-test p≦0.01): less than 50%; reduction in fecundity ([2]; wild-type, ingesting bacteria expressing CED-4): 50%; number of hatched offspring (mean) ([3]; 2 ced-3 mutant embryos per experiment, ingesting CED-4 producing bacteria, ten experiments): about 220 hatched offspring; decrease in ced-3 mutant fecundity due to exogenous CED-4 [3, 7]: statistically insignificant; number of hatched offspring (mean) ([4]; 2 ced-4 mutant embryos per experiment, exposed to CED-4 producing bacteria, ten experiments): about 236 hatched offspring; decrease in ced-4 mutant fecundity due to exogenous CED-4 [4, 7]: statistically insignificant
